Measured values from ChEMBL document CHEMBL3507680, “University of Dundee, Gates Library screen for HepG2 cell viability”.

assay: Human HepG2 cell viability assay in 384 well format; assay type: toxicity, cell-based; design: dose 125 nL, time 70.5 hour; cytotoxicity at 70.5 h: concentration not given beside the values; details: HepG2 cells, read-out: Inhibition

Point of comparison: `Cc1cc(C)n(CC2CN(c3nnc(C)c(C)c3C#N)CCO2)n1` (stereo not drawn), cytotoxicity at 70.5 h -3.24%. Against it:
- Cc1ccc(C(=O)N2CCC(Oc3c(C)cccc3C)CC2)c(=O)[nH]1 — higher, 0.338%
- O=C(Nc1ccccn1)N(CCO)Cc1ccccc1Br — higher, -2.33%
- Cn1cc(-c2nc(CN3CCN(c4nccs4)CC3)cs2)cn1 — lower, -5.83%
- Cc1nnc(N2CCOC(CN(C)C)C2)c(C#N)c1C (stereo not drawn) — lower, -6.93%
- NC(=O)c1cnn2c1NCC(CNCCCc1ccccc1)C2 (stereo not drawn) — lower, -6.83%
- Cc1cc(NC(=O)N(CCO)Cc2ccsc2)no1 — lower, -4.98%
- c1cnn(CC2CCCCN2Cc2noc(C3CC3)n2)c1 (stereo not drawn) — lower, -6.47%
- NC(=O)c1cnn2c1NCC(CNCCc1cccs1)C2 (stereo not drawn) — lower, -5.82%
- CCc1ccc(C(=O)NC2CCc3nc(C)cn3C2)o1 (stereo not drawn) — lower, -4.82%
- Cc1nnc(N2CCOC(C)C2)c(C#N)c1C (stereo not drawn) — lower, -8.59%
- CN1CCCC1CNC(=O)CCCOc1cccc(F)c1 (stereo not drawn) — higher, 5.1%
- Cc1cc(C)c2c(c1)C(NCc1c(C)nn(C)c1N(C)C)CCO2 (stereo not drawn) — higher, 3.6%
- COc1c(CNC(c2cccc(F)c2)c2nccn2C)c(C)nn1C (stereo not drawn) — higher, 19%
- Cc1nc2ccccc2c(=O)n1CCC(=O)N1CCCC1 — lower, -6.75%
- Cc1nc2ccccc2c(=O)n1CCC(=O)N1CCCCCC1 — higher, 1.78%
- Cc1ccc(C(=O)Nc2cn[nH]c2)cc1F — higher, 13.5%
- CC(C)c1noc(CCC(=O)NC(C)c2ccccn2)n1 (stereo not drawn) — higher, -1.62%
- Cn1cc(C(=O)N2CCN(Cc3ccsc3)CC2)cn1 — higher, 14.2%
- COC1CCN(C(=O)Cc2csc(-c3ccc(F)cc3)n2)CC1 — higher, 0.103%
- Cc1ccc(C(=O)N(C)Cc2ccc3c(c2)OCCO3)c(=O)[nH]1 — higher, 18.5%
- Cc1nn(C)c(N(C)C)c1CNC1CCOc2ccccc21 (stereo not drawn) — higher, 1.15%
- CN1CCCC1CNC(=O)CCCOc1ccc(I)cc1 (stereo not drawn) — higher, -0.485%
- CN1CCCC1CNC(=O)CCOc1ccc(Cl)cc1 (stereo not drawn) — higher, -2.08%
- COc1c(CNC(c2ccccc2)c2ccc(F)cc2)c(C)nn1C (stereo not drawn) — higher, 24%
- CNc1nc(CNC(=O)Nc2cc(Cl)ccc2F)cs1 — higher, -2.3%
- CNc1nc(CNC(=O)Nc2cccc(C)c2Cl)cs1 — higher, -1.43%
- COC(=O)NCCC(=O)NC(C)Cc1cccc(Br)c1 (stereo not drawn) — higher, 2.65%
- CC(C)NC(=O)CN1CCC(c2cccc(F)c2)C1 (stereo not drawn) — higher, 22.8%
- CCOCC(O)CN1CCN(C(=O)Cc2ccc3c(c2)CCC3)CC1 (stereo not drawn) — higher, 53.8%
- O=C(CSc1ccc(Br)cc1)NS(=O)(=O)c1ccc2c(c1)OCCO2 — higher, 4.15%
- COCC(c1cccc(C(F)(F)F)c1)N(C)C(=O)c1ccccn1 (stereo not drawn) — lower, -4.66%
- CCC(O)CN1CCN(C(=O)Cc2ccc(C)nc2)CC1 (stereo not drawn) — higher, -0.788%
- CC(C(=O)N1CCCN(Cc2ccc(C#N)cc2)CC1)n1cccn1 (stereo not drawn) — higher, 1.6%
- Cc1ccc(CC(=O)N2CCC(Nc3cccnn3)CC2)s1 — higher, 0.908%
- COCC(c1cccc(C(F)(F)F)c1)N(C)C(=O)c1cccnc1 (stereo not drawn) — higher, -1.51%
- CC(C(=O)N1CCCN(Cc2cnn(C)c2)CC1)n1ccnc1 (stereo not drawn) — higher, 23.2%
- Cc1ccc(C(=O)NC(CN2CCCC2=O)c2ccccc2)cn1 (stereo not drawn) — higher, 2.77%
- CC(C)c1ccc(OCCC(=O)N2CCC(C(=O)N(C)C)CC2)cc1 — lower, -3.99%
- Cc1nccc(C(=O)NC(CN2CCCC2=O)c2ccccc2)n1 (stereo not drawn) — lower, -3.75%
- COc1c(CNCc2ccnc(N(C)C)c2)c(C(C)C)nn1C — higher, 0.688%
- CC(C)c1nn(C)c(N(C)C)c1CNCc1ccc(N(C)C)nc1 — higher, 3.68%
- CC(C(=O)N1CCN(Cc2ccc3c(c2)OCO3)CC1)n1ccnc1 (stereo not drawn) — higher, 0.67%
- CCNC(=O)NC(=O)CN1CCC(c2cccc(F)c2)C1 (stereo not drawn) — higher, -2.05%
- CCn1c(CN2CCN(C(=O)C3CCC3)CC2)nc2c(F)cccc21 — higher, 1.75%
- CCNc1cc2c(nn1)CCN(C(=O)c1nccnc1N)C2 — higher, -2.38%
- CCNc1cc2c(nn1)CCN(C(=O)c1ccc3c(c1)OCO3)C2 — lower, -4.42%
- Cc1ccc(NC2CCN(C(=O)Cc3c(C)nn(C)c3C)CC2)nn1 — higher, -1.21%
- COCC(c1cccc(C(F)(F)F)c1)N(C)C(=O)c1ccco1 (stereo not drawn) — higher, -1.02%
- CC(C)c1cc(NC(=O)CN2CCn3c(nnc3C3CC3)C2)on1 — higher, 19.6%
- CC(C)(C)c1cc(NC(=O)CN2CCn3c(nnc3C3CC3)C2)on1 — higher, 3.06%
- O=C(CCc1ccccc1Cl)NS(=O)(=O)c1ccc2c(c1)OCCO2 — higher, -2.93%
- OC(COCc1ccc2c(c1)OCO2)CN1CC(n2cccn2)C1 (stereo not drawn) — higher, 3.04%
- c1ncn(CC2CN(Cc3nc(-c4ccsc4)no3)CCO2)n1 (stereo not drawn) — lower, -6.98%
- OC(COCc1ccccc1)CN1CC(n2cccn2)C1 (stereo not drawn) — lower, -3.54%
- Cc1nc(CN2CCN(C(=O)NC(C)c3cccnc3)CC2)cs1 (stereo not drawn) — higher, 30.6%
- OC(COCc1ccc(Cl)cc1)CN1CC(n2cccn2)C1 (stereo not drawn) — higher, -2.28%
- Cc1nc(C)n(CC2CCCN2Cc2nc(-c3ccccn3)no2)n1 (stereo not drawn) — lower, -7.25%
- CC(=O)NC(CC(=O)Nc1ccc(C)cn1)c1ccccc1 (stereo not drawn) — lower, -6.79%
- Cc1cccc(-c2nc(C)nn2CC(=O)NC2CCCC2)c1 — higher, 3.32%
- Cc1cc(C)n(CC2CN(CC(=O)NC3CCCC3)CCO2)n1 (stereo not drawn) — higher, 18.5%
- CCc1nnc2n1CCN(C(=O)c1cc3ccc(F)cc3nc1C)C2 — lower, -3.67%
- Cc1cc(CN2CCN(c3ccc4nncn4n3)C(C)C2)no1 (stereo not drawn) — higher, 5.04%
- COc1ccc(CNC2CCCN(Cc3noc(C)n3)C2)cc1F (stereo not drawn) — higher, 23.4%
- COc1ccc(-n2ccc(C(=O)N3CCN(C)CC3C)n2)cc1 (stereo not drawn) — lower, -5.83%
- Cc1cccc(-c2nc(C)nn2CC(=O)N(C)C2CC2)c1 — lower, -5.01%
- O=C(Cc1cccc(F)c1)NCCNCc1ccc2c(c1)CCO2 — higher, 6.87%
- Cc1ccc(-c2nc(CNC3CCc4ncnn4C3)co2)c(C)c1 (stereo not drawn) — higher, 1.75%
- O=C(Cc1cccc(F)c1)NCCNCc1ccco1 — higher, 19.4%
- COc1ccc(CCN2CCC(N3CCN(C)C3=O)CC2)cc1 — lower, -8.36%
- Cc1nc(C)n(C2CCCN(C(=O)Cc3n[nH]c4ccccc34)C2)n1 (stereo not drawn) — higher, 1.52%
- Cn1ccc(CN2CCC(OCCc3ccccc3)CC2)cc1=O — lower, -5.72%
- CCc1nc(C2CCCN2CC(=O)Nc2sc(C)c(C)c2C)no1 (stereo not drawn) — lower, -5.03%
- Cc1nc(C)n(C2CCCN(C(=O)COCc3ccccc3)C2)n1 (stereo not drawn) — higher, -0.931%
- O=C(Cc1cccc(F)c1)NCCNCc1cccc(O)c1 — higher, 0.873%
- Cn1ccnc1COc1ccc(CN2CCN(CCO)CC2)cc1 — higher, 15%
- CC(NC(=O)Cn1cccn1)c1ccc2c(c1)OCCCO2 (stereo not drawn) — higher, 52.1%
- Cn1ccnc1COc1ccc(CO)cc1 — lower, -6.37%
- O=C(NCC1CCOC1)c1cc(-c2cccc(Cl)c2)on1 (stereo not drawn) — lower, -5.03%
- O=C(NCC1CCOC1)c1csc(-c2ccco2)n1 (stereo not drawn) — higher, 21.2%
- Cc1cc(C(=O)N2CCCCC2C)ccc1NCC(=O)N1CCOCC1 (stereo not drawn) — higher, 26.9%
- CC(C)C(Sc1nnnn1-c1ccccc1)C(=O)NCc1cccnc1 (stereo not drawn) — higher, -2.05%
- CCCNC(=O)CNc1ccc(C(=O)N2CCCCC2C)cc1C (stereo not drawn) — higher, -2.88%
- Cc1cccc(-c2noc(CN3CCC(N4CCNC4=O)CC3)n2)c1 — higher, -0.858%
- CC(=O)Nc1nc(CN2CCCC2Cn2cncn2)cs1 (stereo not drawn) — higher, 35.6%
- CCn1cnnc1C1CCN(C(=O)c2ccc(C(=O)OC)s2)CC1 — lower, -10.6%
- c1ccc(OCCCN2CCN(c3ccc4nncn4n3)CC2)cc1 — higher, 2.05%
- CN(Cc1cc(-c2ccccc2)no1)C1CCCN(c2cccnn2)C1 (stereo not drawn) — lower, -13.5%
- CCN1CCN(C2CCN(Cc3nc(-c4ccoc4)no3)CC2)C1=O — higher, 1.49%
- COCC(=O)N1CCN(Cc2coc(-c3cccc(F)c3)n2)CC1 — lower, -6.62%
- COCCN1CCC(NCc2cccnc2)C1 (stereo not drawn) — higher, 2.68%
- CC(NC(=O)CNCCn1cccn1)c1ccc2c(c1)OCCO2 (stereo not drawn) — lower, -7.87%
- c1ncn(CC2CCCCN2Cc2csc(C3CCCC3)n2)n1 (stereo not drawn) — higher, 33.9%
- CCc1nccn1C1CCCN(C(=O)c2ccc(C(=O)NC)nc2)C1 (stereo not drawn) — lower, -5.35%
- CCc1nc(CN2CCCN(c3nccs3)CC2)no1 — higher, 6.55%
- CC(=O)N1CCC[C@H]1C(=O)NCCOc1cccc(Cl)c1 — higher, 0.931%
- CC(C)(C)c1noc(CN2CCCN(Cc3cccs3)CC2)n1 — lower, -3.44%
- Cc1cncc(C(=O)N2CCCCC2c2nc(C)cs2)c1 (stereo not drawn) — higher, 17.3%
- CNC(=O)C1CCN(C(=O)c2cccn2Cc2cccs2)CC1 — lower, -8.46%
- CCN(C)S(=O)(=O)N(CC)Cc1ccc2c(c1)OCO2 — lower, -17.8%
- Cc1nnc(NC(=O)NCc2cccnc2N(C)C)s1 — lower, -8.59%
- Cc1ccccc1CS(=O)(=O)CC(=O)NC1CCCCNC1=O (stereo not drawn) — lower, -11.3%
- CC(C)Cc1noc(CN2CCN(c3nccs3)CC2)n1 — lower, -3.87%
- CC(Cn1cccn1)NC(=O)Nc1nnc(C2CC2)s1 (stereo not drawn) — lower, -11%
- O=C(Nc1cc(C(F)(F)F)c[nH]c1=O)N1CCCSCC1 — lower, -8.3%
- c1csc(N2CCCN(Cc3nc(C4CC4)no3)CC2)n1 — lower, -15.8%
- CC(=O)N1CCCC1C(=O)NCCOc1cc(C)cc(C)c1 (stereo not drawn) — lower, -30.3%
- O=C(C1CC1)N1CCN(Cc2coc(-c3ccc(Cl)cc3)n2)CC1 — higher, 12.1%
- COc1ccccc1S(=O)(=O)Nc1ccc2c(C(=O)O)c[nH]c2c1 — lower, -6.86%
- COC(=O)C(NC(=O)C(C)C)c1cc(F)ccc1F (stereo not drawn) — lower, -20.7%
- CCNc1cc2c(nn1)CCN(C(=O)c1cccc3c1OCCO3)C2 — lower, -9.67%
- Cn1cccc1C(=O)Nc1cc(F)ccc1OCC1CCCO1 (stereo not drawn) — lower, -17.4%
- O=C(Nc1cc(F)ccc1OCC1CCCO1)N1CCCC1 (stereo not drawn) — lower, -17.1%
- Cc1nc(C2CCCN(C(=O)CCCn3ccnc3C)C2)no1 (stereo not drawn) — lower, -11.8%
- Cc1nc(C2CCCN(C(=O)c3ccc(Cn4cccn4)o3)C2)no1 (stereo not drawn) — lower, -12.8%
- Clc1snnc1CN1CCOC(CNc2cccnn2)C1 (stereo not drawn) — lower, -21.7%
- CN(C)c1ccc(CNc2cncc(-n3cccn3)n2)cc1 — lower, -4.47%
- Cc1nc(C)n(CC2CCCN2CC(=O)Nc2ccnn2C(C)C)n1 (stereo not drawn) — higher, 17%
